In patent US11427548B2 (Arvinas Operations, Inc., priority 2015, dated 2022):
Like-named read-outs stand apart in the source and are kept apart here.

Target: T1, Androgen Receptor (Homo sapiens, UniProt P10275)
T1 construct: endogenous in cells; host or cells: VCaP cells
T1 sequence (P10275 1-920): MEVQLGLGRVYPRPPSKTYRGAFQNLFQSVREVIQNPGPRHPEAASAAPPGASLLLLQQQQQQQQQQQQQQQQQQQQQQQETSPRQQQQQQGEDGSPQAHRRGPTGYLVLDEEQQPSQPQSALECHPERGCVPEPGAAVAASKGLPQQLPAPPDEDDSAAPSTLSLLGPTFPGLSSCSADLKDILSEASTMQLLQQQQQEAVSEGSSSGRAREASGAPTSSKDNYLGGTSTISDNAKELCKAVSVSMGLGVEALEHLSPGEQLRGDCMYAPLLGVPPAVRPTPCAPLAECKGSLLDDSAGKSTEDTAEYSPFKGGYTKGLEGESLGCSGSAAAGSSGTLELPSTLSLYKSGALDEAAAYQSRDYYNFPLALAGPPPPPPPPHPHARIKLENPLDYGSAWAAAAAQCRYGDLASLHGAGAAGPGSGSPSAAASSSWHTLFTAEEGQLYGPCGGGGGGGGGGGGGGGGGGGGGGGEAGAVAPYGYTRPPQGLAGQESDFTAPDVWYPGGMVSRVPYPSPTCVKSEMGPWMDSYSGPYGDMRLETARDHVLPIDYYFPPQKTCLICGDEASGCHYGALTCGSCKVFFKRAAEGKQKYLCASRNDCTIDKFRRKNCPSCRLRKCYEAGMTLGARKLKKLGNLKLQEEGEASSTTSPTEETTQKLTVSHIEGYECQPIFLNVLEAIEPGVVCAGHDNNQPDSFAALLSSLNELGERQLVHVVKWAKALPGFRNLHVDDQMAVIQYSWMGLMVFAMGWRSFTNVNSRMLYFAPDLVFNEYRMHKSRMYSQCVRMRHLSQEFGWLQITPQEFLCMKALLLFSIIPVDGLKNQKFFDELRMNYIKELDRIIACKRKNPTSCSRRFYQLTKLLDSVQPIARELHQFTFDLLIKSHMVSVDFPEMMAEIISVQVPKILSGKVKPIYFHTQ
Test: Androgen Receptor ELISA assay (PathScan AR ELISA) in VCaP cells: AR degradation, Dmax and DC50
Type: cell-based
Summary of the method: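 VCaP cells, 30,000/well, grown ≥3 days in phenol red-free RPMI with 5% charcoal-stripped FBS; compound added in 0.1% DMSO with 0.1 nM R1881, 7 half-log doses, 24 h. Lysate AR quantified by PathScan sandwich ELISA, HRP/TMB read at 450 nm, giving DC50 and Dmax.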

[1] = read-out: VCaP DC50; VCaP cells; Table 36
[2] = VCaP cells; Table 36; read-out: VCaP DC50
[3] = VCaP, read-out: VCaP Dmax (%), VCaP cells; Table 36
[4] = VCaP, VCaP cells; Table 36; read-out: VCaP Dmax (%)

SMILES | DC50 [2] | Dmax [3] | Dmax [4] | Dmax (VCaP, read-out: VCaP Dmax (%)) | DC50 [1]
Cc1ncsc1-c1ccc([C@H](CO)NC(=O)C2C[C@@H](O)CN2C(=O)C(NC(=O)CN2C3CCC2CN(CCCc2ccc(C(=O)NC4C(C)(C)C(Oc5ccc(C#N)c(Cl)c5)C4(C)C)cc2)C3)C(C)(C)C)cc1 (stereo partly drawn) [Example 828, (2S,4R)-1-((2S)-2-(2-(3-(3-(4-(((1r,3r)-3-(3-chloro-4-cyanophenoxy)-2,2,4,4-tetramethylcyclobutyl)carbamoyl)phenyl)propyl)-3,8-diazabicyclo[3.2.1]octan-8-yl)acetamido)-3,3-dimethylbutanoyl)-4-hydroxy-N-((R)-2-hydroxy-1-(4-(4-methylthiazol-5-yl)phenyl)ethyl) pyrrolidine-2-carboxamide] |  |  |  | > 71% | < 50 nM
Cc1ncsc1-c1ccc([C@H](C)NC(=O)[C@@H]2C[C@@H](O)CN2C(=O)[C@@H](NC(=O)CN2CCN(CCC3CCN(c4ccc(C(=O)N[C@H]5C(C)(C)[C@H](Oc6ccc(C#N)c(Cl)c6)C5(C)C)cn4)C3)CC2)C(C)(C)C)cc1 (stereo partly drawn) [Example 829, N-((1r,3r)-3-(3-chloro-4-cyanophenoxy)-2,2,4,4-tetramethylcyclobutyl)-6-(3-(2-(4-(2-(((S)-1-((2S,4R)-4-hydroxy-2-(((S)-1-(4-(4-methylthiazol-5-yl)phenyl)ethyl)carbamoyl)pyrrolidin-1-yl)-3,3-dimethyl-1-oxobutan-2-yl)amino)-2-oxoethyl)piperazin-1-yl)ethyl)pyrrolidin-1-yl)nicotinamide] | < 50 nM |  |  | > 71% | 
Cc1ncsc1-c1ccc([C@H](C)NC(=O)[C@@H]2C[C@@H](O)CN2C(=O)[C@H](c2cc(CCCCN3CCN(c4ccc(C(=O)N[C@H]5C(C)(C)[C@H](Oc6ccc(C#N)c(Cl)c6)C5(C)C)cn4)CC3)no2)C(C)C)cc1 [Example 830, N-((1r,3r)-3-(3-chloro-4-cyanophenoxy)-2,2,4,4-tetramethylcyclobutyl)-6-(4-(4-(5-((S)-1-((2S, 4R)-4-hydroxy-2-(((S)-1-(4-(4-methylthiazol-5-yl)phenyl)ethyl)carbamoyl)pyrrolidin-1-yl)-3-methyl-1-oxobutan-2-yl)isoxazol-3-yl)butyl)piperazin-1-yl)nicotinamide] | > 501 nM | < 25% |  |  | 
Cc1ncsc1-c1ccc([C@H](C)NC(=O)[C@@H]2C[C@@H](O)CN2C(=O)[C@@H](NC(=O)CN[C@H]2C[C@H](OC3CCN(c4ccc(C(=O)N[C@H]5C(C)(C)[C@H](Oc6ccc(C#N)c(Cl)c6)C5(C)C)cn4)CC3)C2)C(C)(C)C)cc1 [Example 832, N-((1r,3r)-3-(3-chloro-4-cyanophenoxy)-2,2,4,4-tetramethylcyclobutyl)-6-(4-((1S,3r)-3-((2-(((S)-1-((2S,4R)-4-hydroxy-2-(((S)-1-(4-(4-methylthiazol-5-yl)phenyl)ethyl)carbamoyl)pyrrolidin-1-yl)-3,3-dimethyl-1-oxobutan-2-yl)amino)-2-oxoethyl)amino)cyclobutoxy)piperidin-1-yl)nicotinamide] | < 50 nM |  |  | > 71% | 
Cc1ncsc1-c1ccc([C@H](C)NC(=O)C2C[C@@H](O)CN2C(=O)C(NC(=O)CN2C3CCC2CN(CCCCc2ccc(C(=O)N[C@H]4C(C)(C)[C@H](Oc5ccc(C#N)c(Cl)c5)C4(C)C)cc2)C3)C(C)(C)C)cc1 (stereo partly drawn) [Example 835, (2S,4R)-1-((2S)-2-(2-(3-(4-(4-(((1r,3r)-3-(3-chloro-4-cyanophenoxy)-2,2,4,4-tetramethylcyclobutyl)carbamoyl)phenyl)butyl)-3,8-diazabicyclo[3.2.1]octan-8-yl)acetamido)-3,3-dimethylbutanoyl)-4-hydroxy-N-((S)-1-(4-(4-methylthiazol-5-yl)phenyl)ethyl) pyrrolidine-2-carboxamide] |  |  |  | > 71% | < 50 nM
Cc1ncsc1-c1ccc([C@H](CO)NC(=O)[C@@H]2C[C@@H](O)CN2C(=O)[C@@H](NC(=O)CN2C3CCC2CN(CCCCc2ccc(C(=O)N[C@H]4C(C)(C)[C@H](Oc5ccc(C#N)c(Cl)c5)C4(C)C)cc2)C3)C(C)(C)C)cc1 [Example 836, (2S,4R)-1-((2S)-2-(2-(3-(4-(4-(((1r,3r)-3-(3-chloro-4-cyanophenoxy)-2,2,4,4-tetramethylcyclobutyl)carbamoyl)phenyl)butyl)-3,8-diazabicyclo[3.2.1]octan-8-yl)acetamido)-3,3-dimethylbutanoyl)-4-hydroxy-N-((R)-2-hydroxy-1-(4-(4-methylthiazol-5-yl)phenyl)ethyl) pyrrolidine-2-carboxamide] |  |  |  | > 71% | < 50 nM

Further lines, with some results ahead:

DC50 [2] | Dmax [3] | Dmax [4] | SMILES | Dmax (VCaP, read-out: VCaP Dmax (%)) | DC50 [1]
< 50 nM | > 71% |  | Cc1ncsc1-c1ccc([C@H](C)NC(=O)[C@@H]2C[C@@H](O)CN2C(=O)[C@@H](c2cc(CCCCN3CCN(c4ccc(C(=O)N[C@H]5C(C)(C)[C@H](Oc6ccc(C#N)c(Cl)c6)C5(C)C)cn4)CC3)no2)C(C)C)cc1 [Example 831, N-((1r,3r)-3-(3-chloro-4-cyanophenoxy)-2,2,4,4-tetramethylcyclobutyl)-6-(4-(4-(5-((R)-1-((2S, 4R)-4-hydroxy-2-(((S)-1-(4-(4-methylthiazol-5-yl)phenyl)ethyl)carbamoyl)pyrrolidin-1-yl)-3-methyl-1-oxobutan-2-yl)isoxazol-3-yl)butyl)piperazin-1-yl)nicotinamide] |  | 
< 50 nM |  | > 71% | Cc1ncsc1-c1ccc([C@H](C)NC(=O)[C@@H]2C[C@@H](O)CN2C(=O)[C@@H](NC(=O)CN2CCN(CCC3CCN(c4ccc(C(=O)N[C@H]5C(C)(C)[C@H](Oc6ccc(C#N)c(Cl)c6)C5(C)C)cn4)CC3)CC2)C(C)(C)C)cc1 [Example 833, N-((1r,3r)-3-(3-chloro-4-cyanophenoxy)-2,2,4,4-tetramethylcyclobutyl)-6-(4-(2-(4-(2-(((S)-1-((2S,4R)-4-hydroxy-2-(((S)-1-(4-(4-methylthiazol-5-yl)phenyl)ethyl)carbamoyl)pyrrolidin-1-yl)-3,3-dimethyl-1-oxobutan-2-yl)amino)-2-oxoethyl)piperazin-1-yl)ethyl)piperidin-1-yl)nicotinamide] |  | 
< 50 nM |  | > 71% | Cc1ncsc1-c1ccc(C(CO)NC(=O)[C@@H]2CC(O)CN2C(=O)[C@@H](NC(=O)CN2CCN(CCN3CCN(c4ccc(C(=O)NC5C(C)(C)C(Oc6ccc(C#N)c(Cl)c6)C5(C)C)cn4)CC3)CC2)C(C)(C)C)cc1 (stereo partly drawn) [Example 834, N-((1r,3r)-3-(3-chloro-4-cyanophenoxy)-2,2,4,4-tetramethylcyclobutyl)-6-(4-(2-(4-(2-(((S)-1-((2S,4R)-4-hydroxy-2-(((R)-2-hydroxy-1-(4-(4-methylthiazol-5-yl)phenyl)ethyl)carbamoyl)pyrrolidin-1-yl)-3,3-dimethyl-1-oxobutan-2-yl)amino)-2-oxoethyl)piperazin-1-yl)ethyl)piperazin-1-yl)nicotinamide] |  | 
< 50 nM |  | > 71% | Cc1ncsc1-c1ccc([C@H](C)NC(=O)[C@@H]2C[C@@H](O)CN2C(=O)[C@@H](NC(=O)CN2CCN(CCCc3ccc(C(=O)N[C@H]4C(C)(C)[C@H](Oc5ccc(C#N)c(Cl)c5)C4(C)C)cn3)CC2)C(C)(C)C)cc1 [Example 837, N-((1r,3r)-3-(3-chloro-4-cyanophenoxy)-2,2,4,4-tetramethylcyclobutyl)-6-(3-(4-(2-(((S)-1-((2S, 4R)-4-hydroxy-2-(((S)-1-(4-(4-methylthiazol-5-yl)phenyl)ethyl)carbamoyl)pyrrolidin-1-yl)-3,3-dimethyl-1-oxobutan-2-yl)amino)-2-oxoethyl)piperazin-1-yl)propyl) nicotinamide] |  | 
< 50 nM |  | 51 to 70% | Cc1ncsc1-c1ccc([C@H](C)NC(=O)[C@@H]2C[C@@H](O)CN2C(=O)C(c2cc(CCN3CCN(c4ccc(C(=O)N[C@H]5C(C)(C)[C@H](Oc6ccc(C#N)c(Cl)c6)C5(C)C)cn4)CC3)no2)C(C)C)cc1 (stereo partly drawn) [Example 838, N-((1r,3r)-3-(3-chloro-4-cyanophenoxy)-2,2,4,4-tetramethylcyclobutyl)-6-(4-(2-(5-(1-((2S,4R)-4-hydroxy-2-(((S)-1-(4-(4-methylthiazol-5-yl)phenyl)ethyl)carbamoyl)pyrrolidin-1-yl)-3-methyl-1-oxobutan-2-yl)isoxazol-3-yl)ethyl)piperazin-1-yl) nicotinamide] |  | 
